# Experimental data: the supplement of paper PMC10307832
# Compound: C(C(=O)C(=O)O)Br [Bromopyruvate] + CC1(C)CCC(c2ccc(Cl)cc2)=C(CN2CCN(c3ccc(C(=O)NS(=O)(=O)c4ccc(N[C@H](CCN5CCOCC5)CSc5ccccc5)c(S(=O)(=O)C(F)(F)F)c4)cc3)CC2)C1 [Navitoclax] (partner 0.5 µM)
# Experiment: relative viability (nuclei count vs DMSO), 5 days (fraction); higher = more cells survive
# Details: first compound 1 µM
# Outline: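 Relative viability equals treated-well nuclei counts divided by vehicle-well nuclei counts. Counts came from 4× images of lung cancer cell lines grown in 1536-well plates for 5 days after pin-tool dosing on the day after seeding. Dosing used one drug alone or a fixed anchor-drug dose plus five library-drug doses (not always all listed) in √10 steps, and values are medians of duplicate plates.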
row,Cell Line,relative viability
1,NCI-H2405,0.903
2,SW 1573,0.927
3,NCI-H1395,1.24
4,201T,1.28
5,NCI-H1915,0.827
6,HCC-827,1.02
7,LXF-289,0.983
8,NCI-H2347,0.714
9,CAL-12T,1.06
10,NCI-H1651,1.04
11,EPLC-272H,1.15
12,NCI-H23,0.855
13,NCI-H1355,0.936
14,NCI-H322M,1.23
15,NCI-H1437,1.11
16,NCI-H1755,1.06
17,NCI-H2085,1.08
18,HCC-15,0.697
19,NCI-H1793,0.673
20,PC-3 [JPC-3],0.751
21,EKVX,0.887
22,LC-2-ad,0.436

# Same assay, conditions: first compound 3.162 µM
row,Cell Line,relative viability
1,HARA,1.16
2,HCC-78,0.759
3,NCI-H441,0.441
4,NCI-H2023,1.06
5,A-427,0.876
6,NCI-H460,1.17
7,NCI-H1734,0.799
8,NCI-H520,1.08
9,NCI-H2405,0.94
10,SW 1573,1.17
11,NCI-H1395,1.24
12,201T,1.15
13,NCI-H1915,0.765
14,HCC-827,1
15,LXF-289,0.987
16,NCI-H2347,0.742
17,CAL-12T,1.23
18,NCI-H1651,0.97
19,EPLC-272H,1.22
20,NCI-H23,0.807
21,NCI-H1355,0.982
22,NCI-H322M,1.2
23,NCI-H1437,1.09
24,NCI-H1755,1.02
25,NCI-H2085,1.19
26,HCC-15,0.723
27,NCI-H1793,0.376
28,PC-3 [JPC-3],0.811
29,EKVX,0.995
30,LC-2-ad,0.404

# Same assay, conditions: first compound 10 µM
row,Cell Line,relative viability
1,HARA,1.13
2,HCC-78,0.977
3,NCI-H441,0.557
4,LCLC-97TM1,0.538
5,NCI-H2023,1.06
6,A-427,0.895
7,NCI-H460,1.58
8,NCI-H1734,0.975
9,NCI-H520,1.21
10,NCI-H2405,0.971
11,SW 1573,1.02
12,NCI-H1395,1.28
13,201T,1.18
14,NCI-H1915,0.792
15,HCC-827,0.99
16,LXF-289,0.898

row,Cell Line,relative viability
1,NCI-H2347,1.13
2,CAL-12T,1.34
3,NCI-H1651,1.07
4,EPLC-272H,1.01
5,NCI-H23,0.983
6,NCI-H1355,1
7,NCI-H322M,1.22
8,NCI-H1437,1.11
9,NCI-H1755,0.977
10,NCI-H2085,1.25
11,HCC-15,0.759
12,NCI-H1793,0.377
13,PC-3 [JPC-3],0.838
14,EKVX,1.06
15,LC-2-ad,0.35

# Same assay, conditions: first compound 31.62 µM
row,Cell Line,relative viability
1,HARA,1.17
2,HCC-78,0.893
3,NCI-H441,0.439
4,LCLC-97TM1,0.492
5,NCI-H2023,1.09
6,A-427,1.02
7,NCI-H460,1.1
8,NCI-H1734,0.809
9,NCI-H520,1.18
10,NCI-H2405,0.774
11,SW 1573,1.11
12,NCI-H1395,1.17
13,201T,1.2
14,NCI-H1915,0.824
15,HCC-827,1.12
16,LXF-289,0.99

row,Cell Line,relative viability
1,NCI-H2347,0.553
2,CAL-12T,1.34
3,NCI-H1651,0.96
4,EPLC-272H,1.2
5,NCI-H23,0.768
6,NCI-H1355,0.901
7,NCI-H322M,1.16
8,NCI-H1437,1.09
9,NCI-H1755,1.03
10,NCI-H2085,1.07
11,HCC-15,0.765
12,NCI-H1793,0.516
13,PC-3 [JPC-3],0.727
14,EKVX,0.95
15,LC-2-ad,0.459

# Same assay, conditions: first compound 100 µM
row,Cell Line,relative viability
1,HARA,1.14
2,HCC-78,0.886
3,NCI-H441,0.493
4,LCLC-97TM1,0.316
5,NCI-H2023,1.06
6,A-427,1.04
7,NCI-H460,1.16
8,NCI-H1734,0.886
9,NCI-H520,1.03
10,NCI-H2405,1.15
11,SW 1573,0.487
12,NCI-H1395,1.21
13,201T,1.19
14,NCI-H1915,0.801
15,HCC-827,0.996
16,LXF-289,1.02
17,NCI-H2347,0.778
